Data on 23 compounds can be found in patent US11691969B2, “Pyridazinones as PARP7 inhibtors” (Ribon Therapeutics, Inc., priority 2019, dated 2023).

The assay deals with PARP7 (Homo sapiens (Human), UniProt Q7Z3E1). In words: TR-FRET assay: displacement of biotinylated Probe A from the TIPARP active site (Enzymatic Assay for Inhibition of PARP7). Type of assay: binding. The conditions noted are these: TIPARP 6 nM, Probe A 2 nM, 25° C. How it is done: Example A. Enzymatic Assay for Inhibition of PARP7
Displacement of Probe A, a biotinylated probe binding to the TIPARP active site, was measured using a time-resolved fluorescence energy transfer (TR-FRET) assay. 20 nL of a dose response curve of each test compound was spotted in black 384-well polystyrene proxiplates (Perkin Elmer) using a Mosquito (TTP Labtech). Reactions were performed in a 8 μl volume by adding 6 μL of TIPARP and Probe A in assay buffer (20 mM HEPES pH=8, 100 mM NaCl, 0.1% bovine serum albumin, 2 mM DTT and 0.002% Tween20), incubating with test compound at 25° C. for 30 min, then adding 2 μL of ULight-anti 6×His and LANCE Eu-W1024 labeled streptavidin (Perkin Elmer). The final concentrations of TIPARP and Probe A were 6 nM and 2 nM, respectively. The final concentration of ULight-anti 6×His and LANCE Eu-W1024 labeled streptavidin were 4 nM and 0.25 nM, respectively. Reactions were incubated at 25° C. for an additional 30 min, then read on an Envision platereader equipped with a LANCE/DELFIA top mirror (Perkin Elmer) using excitation of 320 nm and emission of 615 nm and […] with a […]. The ratio of the 665/615 nm emission were calculated for each well to determine the amount of complex of TIPARP and Probe Ain each well. Control wells containing a negative control of 0.25% DMSO vehicle or a positive control of 100 μM 5-(5-(piperidin-4-yloxy)isoindolin-2-yl)-4-(trifluoromethyl)pyridazin-3(2H)-one were used to calculate the % inhibition as described below:
[formula] where TRFcmpd is the TR-FRET ratio from the compound treated well, TRFmin is the TR-FRET ratio from the 5-(5-(piperidin-4-yloxy)isoindolin-2-yl)-4-(trifluoromethyl)pyridazin-3(2H)-one—treated positive control well and TRFmax is the TR-FRET ratio from the DMSO-treated negative control well. The % inhibition values were plotted as a function of compound concentration and the following 4-parameter fit was applied to derive the IC50 values:
[formula] where top and bottom are normally allowed to float, but may be fixed at 100 or 0 respectively in a 3-parameter fit. The Hill Coefficient is normally allowed to float but may also be fixed at 1 in a 3-parameter fit. Y is the % inhibition and X is the compound concentration. Synthesis of Probe A

Some results are limits rather than exact numbers.

Sequence of PARP7 (Q7Z3E1 whole entry): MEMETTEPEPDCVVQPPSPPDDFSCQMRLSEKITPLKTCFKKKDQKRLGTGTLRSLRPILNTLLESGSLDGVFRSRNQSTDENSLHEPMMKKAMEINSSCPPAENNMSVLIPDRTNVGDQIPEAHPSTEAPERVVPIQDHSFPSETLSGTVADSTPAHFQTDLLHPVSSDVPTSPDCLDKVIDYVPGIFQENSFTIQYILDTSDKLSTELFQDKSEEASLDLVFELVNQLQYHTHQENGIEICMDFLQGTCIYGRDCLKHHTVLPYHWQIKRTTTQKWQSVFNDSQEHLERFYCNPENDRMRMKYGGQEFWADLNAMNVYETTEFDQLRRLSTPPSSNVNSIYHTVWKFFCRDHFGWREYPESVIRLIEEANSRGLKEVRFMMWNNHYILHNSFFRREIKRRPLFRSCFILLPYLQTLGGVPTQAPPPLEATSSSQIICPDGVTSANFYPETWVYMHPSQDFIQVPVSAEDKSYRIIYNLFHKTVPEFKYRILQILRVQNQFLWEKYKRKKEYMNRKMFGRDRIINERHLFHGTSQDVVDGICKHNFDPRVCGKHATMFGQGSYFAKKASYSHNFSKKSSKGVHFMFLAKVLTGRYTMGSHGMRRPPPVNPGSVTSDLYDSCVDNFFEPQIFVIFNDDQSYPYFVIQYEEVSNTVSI

`C[C@@H](CN[C@H]1CCN(C2CCN(c3ncc(C(F)(F)F)cn3)CC2)C1=O)Nc1cn[nH]c(=O)c1C(F)(F)F` (single isomer, unassigned) [Example 26A] came in with an IC50 of no less than 1000 nM.

For the compound `C[C@H](CN[C@H]1CCN(C2CCN(c3ncc(C(F)(F)F)cn3)CC2)C1=O)Nc1cn[nH]c(=O)c1C(F)(F)F` (single isomer, unassigned) [Example 26C], the IC50 is no less than 1000 nM.

With `C[C@H](CN[C@@H]1CCN(C2CCN(c3ncc(C(F)(F)F)cn3)CC2)C1=O)Nc1cn[nH]c(=O)c1C(F)(F)F` (single isomer, unassigned) [Example 26D], the IC50 was in the range of 100 to 1000 nM.

For `C[C@@H](COCC(=O)N[C@@H]1CCN(c2ncc(C(F)(F)F)cn2)C[C@H]1O)Nc1cn[nH]c(=O)c1C(F)(F)F` (single isomer, unassigned) [Example 33A], the IC50 was less than 100 nM.

`C[C@@H](COCC(=O)N[C@H]1CCN(c2ncc(C(F)(F)F)cn2)C[C@@H]1O)Nc1cn[nH]c(=O)c1C(F)(F)F` (single isomer, unassigned) [Example 33B]: the IC50 was less than 100 nM.

Compound `C[C@@H](CO[C@@H]1CCN([C@@H]2CCN(c3ncc(C(F)(F)F)cn3)C[C@H]2F)C1=O)Nc1cn[nH]c(=O)c1C(F)(F)F` (single isomer, unassigned) [Example 38A] gave an IC50 of less than 100 nM.

For the compound `C[C@@H](CO[C@@H]1CCN([C@H]2CCN(c3ncc(C(F)(F)F)cn3)C[C@@H]2F)C1=O)Nc1cn[nH]c(=O)c1C(F)(F)F` (single isomer, unassigned) [Example 38B], the IC50 was less than 100 nM.

Compound `C[C@@H](CO[C@@H]1CCN([C@@H]2CCN(c3ncc(C(F)(F)F)cn3)C[C@@H]2F)C1=O)Nc1cn[nH]c(=O)c1C(F)(F)F` (single isomer, unassigned) [Example 39A] yielded an IC50 of less than 100 nM.

In the case of `C[C@@H](CO[C@@H]1CCN([C@H]2CCN(c3ncc(C(F)(F)F)cn3)C[C@H]2F)C1=O)Nc1cn[nH]c(=O)c1C(F)(F)F` (single isomer, unassigned) [Example 39B], the IC50 was less than 100 nM.

Turning to `C[C@@H](CO[C@@H]1CCN([C@@H]2CCN(c3ccc(C#N)cn3)CC2(F)F)C1=O)Nc1cn[nH]c(=O)c1C(F)(F)F` (single isomer, unassigned) [Example 40A], the IC50 is less than 100 nM.

Take `C[C@@H](CO[C@@H]1CCN([C@H]2CCN(c3ccc(C#N)cn3)CC2(F)F)C1=O)Nc1cn[nH]c(=O)c1C(F)(F)F` (single isomer, unassigned) [Example 40B]: the IC50 is less than 100 nM.

For the compound `C[C@@H](COCC(=O)NC1CCN(c2ncc(C(F)(F)F)cn2)CC1)Nc1cn[nH]c(=O)c1C(F)(F)F` [Example 1, (S)-2-(2-(6-oxo-5-(trifluoromethyl)-1,6-dihydropyridazin-4-ylamino)propoxy)-N-(1-(5-(trifluoromethyl)pyrimidin-2-yl)piperidin-4-yl)acetamide], the IC50 is less than 100 nM.

For the compound `C[C@@H](COCC(=O)N(C)C1CCN(c2ncc(C(F)(F)F)cn2)CC1)Nc1cn[nH]c(=O)c1C(F)(F)F` [Example 2, (S)—N-methyl-2-(2-(6-oxo-5-(trifluoromethyl)-1,6-dihydropyridazin-4-ylamino)propoxy)-N-(1-(5-(trifluoromethyl)pyrimidin-2-yl)piperidin-4-yl)acetamide], the IC50 was less than 100 nM.

Consider `C[C@@H](COCC(=O)N(C)C1CCN(c2ncc(C(F)(F)F)s2)CC1)Nc1cn[nH]c(=O)c1C(F)(F)F` [Example 3, (S)—N-methyl-2-(2-((6-oxo-5-(trifluoromethyl)-1,6-dihydropyridazin-4-yl)amino)propoxy)-N-(1-(5-(trifluoromethyl)thiazol-2-yl)piperidin-4-yl)acetamide], for which the concentration for half-maximal inhibition (IC50) was less than 100 nM.

On to `C[C@@H](COCC(=O)N(C)C1CCN(c2cnc(C(F)(F)F)cn2)CC1)Nc1cn[nH]c(=O)c1C(F)(F)F` [Example 4, (S)—N-methyl-2-(2-(6-oxo-5-(trifluoromethyl)-1,6-dihydropyridazin-4-ylamino)propoxy)-N-(1-(5-(trifluoromethyl)pyrazin-2-yl)piperidin-4-yl)acetamide], for which the IC50 was less than 100 nM.

Compound `C[C@@H](COCC(=O)N(C)C1CN(c2ncc(C(F)(F)F)cn2)C1)Nc1cn[nH]c(=O)c1C(F)(F)F` [Example 5, (S)—N-methyl-2-(2-(6-oxo-5-(trifluoromethyl)-1,6-dihydropyridazin-4-ylamino)propoxy)-N-(1-(5-(trifluoromethyl)pyrimidin-2-yl)azetidin-3-yl)acetamide] came in with an IC50 of less than 100 nM.

Consider `C[C@@H](COCC(=O)N(C)C1CCN(c2ccc(C#N)cn2)CC1)Nc1cn[nH]c(=O)c1C(F)(F)F` [Example 6, (S)—N-(1-(5-cyanopyridin-2-yl)piperidin-4-yl)-N-methyl-2-(2-((6-oxo-5-(trifluoromethyl)-1,6-dihydropyridazin-4-yl)amino)propoxy)acetamide], for which the IC50 was less than 100 nM.

The compound `CCN(C(=O)COC[C@H](C)Nc1cn[nH]c(=O)c1C(F)(F)F)C1CCN(c2ncc(C(F)(F)F)cn2)CC1` [Example 7, (S)—N-ethyl-2-(2-((6-oxo-5-(trifluoromethyl)-1,6-dihydropyridazin-4-yl)amino)propoxy)-N-(1-(5-(trifluoromethyl)pyrimidin-2-yl)piperidin-4-yl)acetamide] gave an IC50 of less than 100 nM.

For `CN(C(=O)COC[C@@H]1CCN1c1cn[nH]c(=O)c1C(F)(F)F)C1CCN(c2ncc(C(F)(F)F)cn2)CC1` [Example 8, (S)—N-methyl-2-((1-(6-oxo-5-(trifluoromethyl)-1,6-dihydropyridazin-4-yl)azetidin-2-yl)methoxy)-N-(1-(5-(trifluoromethyl)pyrimidin-2-yl)piperidin-4-yl)acetamide], the IC50 was less than 100 nM.

`COC[C@@H](COCC(=O)N(C)C1CCN(c2ncc(C(F)(F)F)cn2)CC1)Nc1cn[nH]c(=O)c1C(F)(F)F` [Example 9, (S)-2-(3-methoxy-2-((6-oxo-5-(trifluoromethyl)-1,6-dihydropyridazin-4-yl)amino)propoxy)-N-methyl-N-(1-(5-(trifluoromethyl)pyrimidin-2-yl)piperidin-4-yl)acetamide]: the IC50 is less than 100 nM.

In turn, `C[C@@H](CO[C@H]1CCN(C2CCN(c3ncc(C(F)(F)F)cn3)CC2)C1=O)Nc1cn[nH]c(=O)c1C(F)(F)F` [Example 10A, 5-((S)-1-((S)-1-(1-(5-(trifluoromethyl)pyrimidin-2-yl)piperidin-4-yl)-2-oxopyrrolidin-3-yloxy)propan-2-ylamino)-4-(trifluoromethyl)pyridazin-3(2H)-one] yielded a half-inhibitory concentration (IC50) of 100 to 1000 nM.

Compound `C[C@@H](CO[C@@H]1CCN(C2CCN(c3ncc(C(F)(F)F)cn3)CC2)C1=O)Nc1cn[nH]c(=O)c1C(F)(F)F` [Example 10B, 5-((S)-1-((R)-1-(1-(5-(trifluoromethyl)pyrimidin-2-yl)piperidin-4-yl)-2-oxopyrrolidin-3-yloxy)propan-2-ylamino)-4-(trifluoromethyl)pyridazin-3(2H)-one] had an IC50 of less than 100 nM.

For `C[C@@H](COC1CCN(C2CCN(c3ncc(C(F)(F)F)cn3)CC2)C1=O)Nc1cn[nH]c(=O)c1Cl` (stereo partly drawn) [Example 11, 4-chloro-5-((S)-1-(2-oxo-1-(1-(5-(trifluoromethyl)pyrimidin-2-yl)piperidin-4-yl)pyrrolidin-3-yloxy)propan-2-ylamino)pyridazin-3(2H)-one], the IC50 was less than 100 nM.
